In article PMC9014412 (Journal of medicinal chemistry, 2022):

Columns and labels:
H3K56ac = experiment: Histone H3 Lys 56 acetylation (H3K56ac) western blotting; assay type: cell-based, human; conditions: HCT116 cells, 24 h, screen at 0.1, 1, 10 μM; relative to DMSO, CI-994 and 1 at 10 μM
From the text: (§1) Supporting Information: Biology
(§2) Representative blots of two independent biological replicates.

HDAC1 = HDAC1 (Homo sapiens, UniProt Q13547); experiment: HDAC1 degradation by quantitative western blotting in HCT116 cells; conditions: HCT116 cells; for HDAC1 degradation in initial screen (in words): 24 h, 0.1, 1 and 10 μM, compared with 1 at 10 μM
Sequence of HDAC1 (Q13547 whole entry): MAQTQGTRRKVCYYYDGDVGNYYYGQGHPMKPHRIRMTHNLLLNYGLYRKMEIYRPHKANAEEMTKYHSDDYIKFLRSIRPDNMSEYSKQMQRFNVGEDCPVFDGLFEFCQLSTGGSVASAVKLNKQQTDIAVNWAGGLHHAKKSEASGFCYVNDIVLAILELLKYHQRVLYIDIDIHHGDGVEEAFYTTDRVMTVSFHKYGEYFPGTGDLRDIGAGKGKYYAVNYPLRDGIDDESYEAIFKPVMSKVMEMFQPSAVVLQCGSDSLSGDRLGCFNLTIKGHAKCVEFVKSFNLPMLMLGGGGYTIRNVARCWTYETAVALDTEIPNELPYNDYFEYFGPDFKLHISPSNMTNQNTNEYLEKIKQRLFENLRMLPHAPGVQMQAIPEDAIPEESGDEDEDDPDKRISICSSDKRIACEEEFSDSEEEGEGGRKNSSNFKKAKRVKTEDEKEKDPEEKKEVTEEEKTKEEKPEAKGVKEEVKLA
Method: (§3) Initially, each PROTAC was tested at 0.1, 1, and 10 μM in HCT116 cells for 24 h; then, cell extracts were prepared and evaluated for HDAC1/2 and 3 degradation by quantitative western blotting.
(§4) This cell line was incubated at 37 °C with 5% CO2.
(§5) HCT116 cells were seeded into 6-well plates (4 × 10^5 cells/well for 24 h, 2 × 10^5 cells/well for 48 h) for 24 h and then treated with DMSO or compounds at the indicated concentrations in fresh medium (5 mL total). After desired treatment time, the cells were harvested and then lysed in lysis buffer (50 mM Tris-HCl, 150 mM NaCl, 0.5% NP-40, 0.5% Triton X-100) supplemented with a protease inhibitor (Sigma, P8340). The suspension was incubated on ice for 30 min and centrifuged (18,000 rcf, 15 min, 4 °C); then, the supernatant was collected, and protein concentrations were quantified via Bradford Assay using Protein Assay Dye Reagent Concentrate (BIO-RAD). […] PageRuler Plus Prestained Ladder was used for size standards. After gel electrophoresis at 140 V for 90 min, the separated proteins were transferred onto a nitrocellulose membrane at 30 V for 60 min. The membranes were probed with primary antibodies (see the Supporting Information) for 60−90 min. Blots were developed with complimentary IRDye-conjugated secondary antibodies, and the bands were visualized using an Odyssey infrared imaging system. Image processing and band intensity quantification were performed using Image Studio Lite.

HDAC2 = HDAC2 (Homo sapiens, UniProt Q92769); experiment: HDAC2 degradation by quantitative western blotting in HCT116 cells; conditions: for HDAC2 degradation in initial screen (in words): HCT116 cells, 24 h, 0.1, 1 and 10 μM, compared with 1 at 10 μM
Sequence of HDAC2 (Q92769 whole entry): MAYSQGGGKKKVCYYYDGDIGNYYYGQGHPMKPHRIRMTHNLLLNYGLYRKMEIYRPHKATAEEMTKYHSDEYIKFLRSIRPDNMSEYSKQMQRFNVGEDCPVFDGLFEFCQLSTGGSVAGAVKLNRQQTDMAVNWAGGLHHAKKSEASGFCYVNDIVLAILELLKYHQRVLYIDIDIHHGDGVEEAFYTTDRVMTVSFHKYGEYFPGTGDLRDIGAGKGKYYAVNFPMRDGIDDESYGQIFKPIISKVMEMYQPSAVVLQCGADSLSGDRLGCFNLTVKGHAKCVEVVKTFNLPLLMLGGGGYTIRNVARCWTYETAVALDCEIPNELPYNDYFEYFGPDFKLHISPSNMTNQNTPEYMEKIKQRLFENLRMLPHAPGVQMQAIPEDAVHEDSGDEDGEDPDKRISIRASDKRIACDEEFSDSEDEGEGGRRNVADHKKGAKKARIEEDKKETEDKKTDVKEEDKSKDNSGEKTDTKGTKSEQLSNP
Method: as §3, §4, §5

HDAC3 = HDAC3 (Homo sapiens, UniProt O15379); experiment: HDAC3 degradation by quantitative western blotting in HCT116 cells; conditions: HCT116 cells, 24 h, 0.1, 1 and 10 μM; compared with 1 at 10 μM
Sequence of HDAC3 (O15379 whole entry): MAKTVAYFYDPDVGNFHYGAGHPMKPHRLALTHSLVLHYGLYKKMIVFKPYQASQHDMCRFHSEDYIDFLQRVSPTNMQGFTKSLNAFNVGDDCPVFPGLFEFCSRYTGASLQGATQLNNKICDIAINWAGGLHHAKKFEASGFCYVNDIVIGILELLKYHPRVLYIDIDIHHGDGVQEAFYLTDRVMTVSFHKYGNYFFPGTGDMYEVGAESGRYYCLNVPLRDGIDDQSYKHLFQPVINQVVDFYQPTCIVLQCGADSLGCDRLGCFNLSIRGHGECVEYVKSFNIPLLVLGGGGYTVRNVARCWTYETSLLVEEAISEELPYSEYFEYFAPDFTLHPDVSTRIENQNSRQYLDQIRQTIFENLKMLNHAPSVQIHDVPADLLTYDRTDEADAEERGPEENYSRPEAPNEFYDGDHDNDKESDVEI
Sequence of HDAC3 (Q9Y618 389-480 partner limits assumed): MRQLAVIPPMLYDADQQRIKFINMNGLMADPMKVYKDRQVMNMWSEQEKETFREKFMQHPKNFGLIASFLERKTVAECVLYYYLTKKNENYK
Method: as §3, §4, §5

HCT116 cells = experiment: CellTiter-Glo 2.0 cell viability assay; assay type: cell-based, human
Method: CellTiter-Glo 2.0 Reagent (Promega UK Ltd, G9242) was equilibrated to room temperature and added to the wells in a ratio of 1 volume reagent:5 volumes medium. Background luminescence was determined using medium alone plus reagent. The plates were shaken on an orbital shaker for 2 min to induce cell lysis and then incubated in the dark at room temperature for 10 min to stabilize the luminescent signal. Luminescence was captured on a CLARIOstar plate reader (BMG Labtech Ltd, UK) at 22 °C to give relative luminescence units and analyzed using BMG Labtech software. EC50 values were calculated by nonlinear regression (Hill plot) and log (inhibitor) versus response—variable slopes (four parameters) using GraphPad Prism 9 software. Each compound dose response was repeated as four independent biological replicates (n = 4).

SIN3A = SIN3A protein levels by western blotting; assay type: cell-based, human; conditions: HCT116 cells, especially after 48 h
Method: as §1, §2
Figure S6. Representative Western blot of HDAC1/2/3 levels after 24 hours and 48 hours with 1
(JPS004), 7 (JPS014) and 9 (JPS016), and bar graph representation of HDAC1-3, LSD1 and Sin3a
protein levels after 24 hours and 48 hours as the average of three independent biological replicates.
(also on this page, place not known: HDAC1 24hHDAC2 24hHDAC3 24hHDAC1 48hHDAC2 48hHDAC3 %Protein Levels Remaining (Relative to DMSO) %Protein Levels Remaining (Relative to DMSO))

Compound | HDAC3 degradation in initial screen (in words) (HDAC3) | H3K56ac levels (in words) (H3K56ac) | HDAC1 degradation in initial screen (in words) (HDAC1) | HDAC2 degradation in initial screen (in words) (HDAC2) | also measured
(2S,4R)-1-((S)-2-(2-((9-((4-((2-Aminophenyl)carbamoyl)phenyl)-amino)-9-oxononyl)oxy)acetamido)-3,3-dimethylbutanoyl)-4-hydroxy-N-(4-(4-methylthiazol-5-yl)benzyl)pyrrolidine-2-carboxamide [Compound 6] | significantly enhanced compared to that of 1 | increased H3K56ac to comparable or greater levels than CI-994 and 1 |  |  | 
Cc1ncsc1-c1ccc(CNC(=O)[C@@H]2C[C@@H](O)CN2C(=O)[C@@H](NC(=O)COCCOCCOCC(=O)Nc2ccc(C(=O)Nc3cc(-c4cccs4)ccc3N)cc2)C(C)(C)C)cc1 [Compound 20, (2S,4R)-1-((S)-14-((4-((2-Amino-5-(thiophen-2-yl)phenyl)-carbamoyl)phenyl)amino)-2-(tert-butyl)-4,14-dioxo-6,9,12-trioxa-3-azatetradecanoyl)-4-hydroxy-N-(4-(4-methylthiazol-5-yl)benzyl)-pyrrolidine-2-carboxamide] |  | did increase H3K56ac to levels similar to 1 | did not result in enhanced degradation potency of HDAC1/2 | did not result in enhanced degradation potency of HDAC1/2 | DC50 (HDAC1; read-out: DC50 HDAC1, 24 h, quantitative western blotting): 3.51 µM
Cc1ncsc1-c1ccc(CNC(=O)[C@@H]2C[C@@H](O)CN2C(=O)[C@@H](NC(=O)CCCCCCCCCCC(=O)Nc2ccc(C(=O)Nc3ccccc3N)cc2)C(C)(C)C)cc1 [Compound 1, N1-(4-((2-Aminophenyl)carbamoyl)phenyl)-N12-((S)-1-((2S,4R)-4-hydroxy-2-((4-(4-methylthiazol-5-yl)benzyl)carbamoyl)pyrrolidin-1-yl)-3,3-dimethyl-1-oxobutan-2-yl)dodecanediamide] |  |  |  |  | EC50 (HCT116 cells; Homo sapiens, HCT-116, 48 h, 48 h): 4.3 ± 0.5 µM
Cc1ncsc1-c1ccc(CNC(=O)[C@@H]2C[C@@H](O)CN2C(=O)C(NC(=O)COCCOCCOCC(=O)Nc2ccc(C(=O)Nc3ccc(F)cc3N)cc2)C(C)(C)C)cc1 (stereo in doubt) [Compound 16, (2S,4R)-1-((S)-14-((4-((2-Amino-4-fluorophenyl)carbamoyl)-phenyl)amino)-2-(tert-butyl)-4,14-dioxo-6,9,12-trioxa-3-azatetradecanoyl)-4-hydroxy-N-(4-(4-methylthiazol-5-yl)benzyl)-pyrrolidine-2-carboxamide] | only modest HDAC3 degradation at 10 μM |  |  |  | 
Cc1ncsc1-c1ccc(CNC(=O)[C@@H]2C[C@@H](O)CN2C(=O)[C@@H](NC(=O)COCCCCCCCCCOCC(=O)Nc2ccc(C(=O)Nc3ccc(F)cc3N)cc2)C(C)(C)C)cc1 [Compound 17, (2S,4R)-1-((S)-2-(2-((9-(2-((4-((2-Amino-4-fluorophenyl)-carbamoyl)phenyl)amino)-2-oxoethoxy)nonyl)oxy)acetamido)-3,3-dimethylbutanoyl)-4-hydroxy-N-(4-(4-methylthiazol-5-yl)-benzyl)pyrrolidine-2-carboxamide] | HDAC3 degradation was also enhanced at 1 μM compared to 1 | greater than twofold increase in H3K56ac compared to the DMSO control | significant HDAC1 degradation was also still observed at 1 μM |  | 
CC(=O)Nc1ccc(C(=O)Nc2ccccc2N)cc1 [CI-994, reference compound] |  |  |  |  | SIN3A levels (in words) (SIN3A): significantly reduced
Cc1ncsc1-c1ccc(CNC(=O)[C@@H]2C[C@@H](O)CN2C(=O)[C@@H](NC(=O)COCCCCCCOCC(=O)Nc2ccc(C(=O)Nc3ccccc3N)cc2)C(C)(C)C)cc1 [Compound 8, (2S,4R)-1-((S)-2-(2-((6-(2-((4-((2-Aminophenyl)carbamoyl)-phenyl)amino)-2-oxoethoxy)hexyl)oxy)acetamido)-3,3-dimethylbutanoyl)-4-hydroxy-N-(4-(4-methylthiazol-5-yl)benzyl)pyrrolidine-2-carboxamide] | loss of HDAC3 degradation compared to 6 and 7 | matched those of CI-994 | comparable to that of 1 but not maintained at 1 μM |  | 
Cc1ncsc1-c1ccc(CNC(=O)[C@@H]2C[C@@H](O)CN2C(=O)[C@@H](NC(=O)C2(F)CC2)C(C)(C)C)c(OCCCCCCCCCCCC(=O)Nc2ccc(C(=O)Nc3ccccc3N)cc2)c1 [Compound 22, (2S,4R)-N-(2-((12-((4-((2-Aminophenyl)carbamoyl)phenyl)-amino)-12-oxododecyl)oxy)-4-(4-methylthiazol-5-yl)benzyl)-1-((S)-2-(1-fluorocyclopropane-1-carboxamido)-3,3-dimethylbutanoyl)-4-hydroxypyrrolidine-2-carboxamide] |  | did not alter H3K56ac levels |  | reduction in HDAC1 and HDAC2 degradation compared to 1 | Effect on cell viability (in words) (HCT116 cells; CellTiter-Glo and flow cytometry): little effects on cell viability; Dmax (HDAC2; HCT-116, read-out: Dmax HDAC2): 18%

Second part, led by results:

HDAC3 degradation in initial screen (in words) (HDAC3) | Compound | H3K56ac levels (in words) (H3K56ac) | HDAC1 degradation in initial screen (in words) (HDAC1) | HDAC2 degradation in initial screen (in words) (HDAC2) | also measured
generally compromised | Cc1ncsc1-c1ccc(CNC(=O)[C@@H]2C[C@@H](O)CN2C(=O)[C@@H](NC(=O)COCCOCCOCC(=O)Nc2ccc(C(=O)Nc3ccccc3N)cc2)C(C)(C)C)cc1 [Compound 11, (2S,4R)-1-((S)-14-((4-((2-Aminophenyl)carbamoyl)phenyl)-amino)-2-(tert-butyl)-4,14-dioxo-6,9,12-trioxa-3-azatetradecanoyl)-4-hydroxy-N-(4-(4-methylthiazol-5-yl)benzyl)pyrrolidine-2-carboxamide] | did not increase H3K56ac levels compared to the dimethyl sulfoxide (DMSO) control | almost complete loss of HDAC1/2 degradation | almost complete loss of HDAC1/2 degradation | 
generally compromised | Cc1ncsc1-c1ccc(CNC(=O)[C@@H]2C[C@@H](O)CN2C(=O)[C@@H](NC(=O)COCCOCC(=O)Nc2ccc(C(=O)Nc3ccccc3N)cc2)C(C)(C)C)cc1 [Compound 10, (2S,4R)-1-((S)-2-(2-(2-(2-((4-((2-Aminophenyl)carbamoyl)-phenyl)amino)-2-oxoethoxy)ethoxy)acetamido)-3,3-dimethylbutanoyl)-4-hydroxy-N-(4-(4-methylthiazol-5-yl)benzyl)pyrrolidine-2-carboxamide] | did not increase H3K56ac levels compared to the dimethyl sulfoxide (DMSO) control | almost complete loss of HDAC1/2 degradation | almost complete loss of HDAC1/2 degradation | 
generally compromised | Cc1ncsc1-c1ccc(CNC(=O)[C@@H]2C[C@@H](O)CN2C(=O)[C@@H](NC(=O)CCCN2CCN(CCCC(=O)Nc3ccc(C(=O)Nc4ccccc4N)cc3)CC2)C(C)(C)C)cc1 [Compound 13, (2S,4R)-1-((S)-2-(4-(4-(4-((4-((2-Aminophenyl)carbamoyl)-phenyl)amino)-4-oxobutyl)piperazin-1-yl)butanamido)-3,3-dimethylbutanoyl)-4-hydroxy-N-(4-(4-methylthiazol-5-yl)benzyl)-pyrrolidine-2-carboxamide] | did not increase H3K56ac levels compared to the dimethyl sulfoxide (DMSO) control | almost complete loss of HDAC1/2 degradation | almost complete loss of HDAC1/2 degradation | 
enhanced HDAC3 degradation compared to 1 | Cc1ncsc1-c1ccc(CNC(=O)[C@@H]2C[C@@H](O)CN2C(=O)C(NC(=O)CCCCCCCCCCC(=O)Nc2ccc(C(=O)Nc3ccc(F)cc3N)cc2)C(C)(C)C)cc1 (stereo in doubt) [Compound 15, N1-(4-((2-Amino-4-fluorophenyl)carbamoyl)phenyl)-N12-((S)-1-((2S,4R)-4-hydroxy-2-((4-(4-methylthiazol-5-yl)benzyl)carbamoyl)-pyrrolidin-1-yl)-3,3-dimethyl-1-oxobutan-2-yl)dodecanediamide] |  |  |  | 
generally compromised | Cc1ncsc1-c1ccc(CNC(=O)[C@@H]2CC(O)CN2C(=O)[C@@H](NC(=O)COCCOCCOCCOCC(=O)Nc2ccc(C(=O)Nc3ccccc3N)cc2)C(C)(C)C)cc1 (stereo in doubt) [Compound 12, N1-(4-((2-Aminophenyl)carbamoyl)phenyl)-N14-((S)-1-((2S,4S)-4-hydroxy-2-((4-(4-methylthiazol-5-yl)benzyl)carbamoyl)-pyrrolidin-1-yl)-3,3-dimethyl-1-oxobutan-2-yl)-3,6,9,12-tetraoxatetradecanediamide] | did not increase H3K56ac levels compared to the dimethyl sulfoxide (DMSO) control | almost complete loss of HDAC1/2 degradation | almost complete loss of HDAC1/2 degradation | 
